This is an account of results in patent US20240226085A1, “KYNRENINE AND DERIVATIVES THEREOF FOR TREATING ATROPHIC SCARRING” (BirchBioMed Inc., priority 2021, published 2024).

For experiment [1], the system named is atrophic acne scarring on the face. The experiment can be described thus: Topical kynurenic acid (0.5% by weight) cream for reducing appearance of atrophic acne scarring (individual user reports). The format is in vivo, human. As to conditions: person. From the text:
FIG. 1A is a photographic representation of a target facial skin area of a subject with treatment-resistant stable atrophic scarring from acne before application of topical kynurenic acid (0.5% by weight) cream.
FIG. 1B is a photographic representation of the target facial skin area of the subject of FIG. 1A after bidaily use of topical kynurenic acid (0.5% by weight) for 8 weeks. […] The dashed black box in each image highlights the similar target area on the right cheek region in both images for comparison.
I. A topical cream was made as follows, kynurenic acid was solubilized in a phosphate buffered solution of 1 M NaOH and the pH was then adjusted to 5.5 at room temperature, this KynA solution was then added with steady mixing to a dermatological compounding base (Glaxal Base™, WellSpring, Ont., Canada) and adjusted to a pH of 6 before packaging in poly bottles. Topical cream was made at 0.15%, 0.25%, 0.4%, and 0.5% kynurenic acid by weight (Papp et al., 2018).
A person presented with significant atrophic acne scarring on the face and self-reported that their acne scars had been treatment resistant for >20 years. The person applied a topical cream containing 0.5% kynurenic acid by weight twice daily for a 3-month period to the site of the atrophic acne scarring, an application rate of approximately 17 ug of kynurenic acid per cm^2 of skin per application. Initial dermatological healing can be followed by visual inspection of the site. […] An illustrative image of the “before” and “during use” is shown as FIG. 1.
A person with atrophic acne scarring on the face self-reported that the scars were “mature”, “stable”, and had persisted for “>3 years”. The person applied a topical cream containing 0.5% kynurenic acid by weight once daily for a 2-month period at an application rate of approximately 2.5-5 micrograms kynurenic acid per square cm of skin per application.

In the next experiment the test system is dermal fibroblasts. As to conditions: cited from earlier work.
The test system of experiment [2] is rabbit ear hypertrophic scarring model. As to conditions: topical application to skin tissue; '523 FIG. 13; cited from earlier work.

`O=C(O)c1cc(=O)c2ccccc2[nH]1` [kynurenic acid]: the “remarks of others on the user's atrophic acne scars” value in experiment [1] (topical cream 0.5% by weight once daily, 2-month period) is given as “less visible or less noticeable”. Also, in experiment [1] (topical cream 0.5% by weight once daily, 2-month period, approx. 2.5-5 micrograms per square cm per application), the “user-reported appearance of holes and indents of atrophic acne scars” value was “less visible and less noticeable and appeared to be filling in”. For the same compound, in experiment [1] (topical cream 0.5% by weight twice daily), the “time at which the reported reduction in appearance started” value is given as “approximately 2 weeks”. Further, the “unsolicited feedback from others on appearance of acne [atrophic scarring]” value in experiment [1] (topical cream 0.5% by weight twice daily, 3-month period) is listed as “markedly less apparent”. For the same compound, the “subject-reported perceived appearance of atrophic acne scarring” value in experiment [1] (topical cream 0.5% by weight twice daily, 3-month period, approx. 17 ug per cm^2 per application) was “significant reduction”. For the same compound, in the experiment on dermal fibroblasts ('523 FIG. 2), the MMP-1 expression result is given as “increase”. In addition, the MMP-3 expression result in the experiment with dermal fibroblasts ('523 FIG. 3) is listed as “increase”. In addition, the “collagen 1 expression” value in the experiment on dermal fibroblasts ('523 FIG. 10) is “downregulate”. In addition, the fibronectin expression entry in the experiment with dermal fibroblasts ('523 FIG. 16) was “downregulate”.
`Nc1ccccc1C(=O)CC(N)C(=O)O` (racemic) [kynurenine]: in experiment [2], the “MMP-1 relative to controls” value is “increased” and the “collagen relative to controls” value was “decreased”.
